From BigSolDB 2.1

COC(=O)C1=C(C)NC(C)=C(C(=O)OCC(C)C)C1c1ccccc1[N+](=O)[O-] (stereo not given)
solubility (mole fraction)
Conditions | in acetonitrile | in cyclohexane | in ethanol | in ethyl acetate | in isopropanol | in n-butanol | in n-propanol | in toluene | in water
278.15 K | 0.00849 | – | 0.00278 | 0.0166 | 0.00467 | 0.00573 | 0.00378 | 0.00154 | 4e-06
283.15 K | 0.0102 | 5.7e-05 | 0.00348 | 0.0188 | 0.00563 | 0.00671 | 0.00455 | 0.00183 | 5e-06
288.15 K | 0.012 | 7.3e-05 | 0.0043 | 0.0215 | 0.00669 | 0.00795 | 0.00545 | 0.00218 | 7e-06
293.15 K | 0.0144 | 9.1e-05 | 0.00529 | 0.0246 | 0.00796 | 0.00938 | 0.00657 | 0.0026 | 9e-06
298.15 K | 0.0169 | 0.000111 | 0.00648 | 0.0278 | 0.00935 | 0.0111 | 0.0078 | 0.00309 | 1.2e-05
303.15 K | 0.0197 | 0.000137 | 0.00789 | 0.0316 | 0.011 | 0.0129 | 0.00941 | 0.00366 | 1.5e-05
308.15 K | 0.0232 | 0.000164 | 0.00935 | 0.0358 | 0.0129 | 0.0149 | 0.0111 | 0.00428 | 1.9e-05
313.15 K | 0.0271 | 0.000198 | 0.0112 | 0.0401 | 0.0152 | 0.0173 | 0.013 | 0.005 | 2.4e-05
318.15 K | 0.0317 | 0.000237 | 0.0134 | 0.0457 | 0.0178 | 0.0202 | 0.0155 | 0.00588 | 3e-05
